Measurements taken from patent US6515106B1, “Lysozyme-analogous polypeptides with an anti-microbial effect, their production and use” (priority 1997, dated 2003).
Read-outs that look alike come from different tables or passages of the source.

Tests used:
Phytophthora nicotianae = experiment: Fungus tests: relative lengths of germ tubes (untitled table, buffers I/II); assay type: cell-based
Procedure: Fungus tests: Relative lengths of germ tubes
(§1) The bactericidal effect of the individual fragments is readily determined by incubation (use of 1-10 μg polypeptide for a quantity of 1×10^7 bacteria cells) for one hour with Escherichia coli or other gram-negative (e.g. Erwinia carotovora, Agrobacterium tumefaciens, Pseudomonas fluorescens) or gram-positive type of bacteria (e.g. Micrococcus lysodeikticus, Clavibacter michiganensis), followed by plating out a dilution series of the suspension, and counting the surviving bacteria. The fungicidal effect of the individual fragments is determined by incubation for 20 hours with spores of Phytophthora nicotianae, or other fungus types, followed by plating out to determine the reduced growth length of the fungus hyphae. The activity is determined in relation to purified T4 lysozyme as standard.

Escherichia coli cells = experiment: Relative survival rates of Escherichia coli cells after 1 hr incubation (bactericidal activity); assay type: cell-based; conditions: for Relative survival rate of Escherichia coli cells: in 0.1 × PBS, 1 hr incubation
Procedure: The antibiotic effectiveness of the polypeptides of the invention is illustrated by their effect on survival rates of Escherichia coli cells in Table 1.
as §1

[1] = test system: Phytophthora nicotianae zoospores; experiment: Relative length of germ tubes of Phytophthora nicotianae zoospores (fungicidal activity, Table 2); assay type: cell-based; conditions: 10 μg, in 0.1 xPBS, after 7 hrs, against blank control
muramidase = experiment: Enzyme activity (muramidase) of the polypeptide; assay type: biochemical, bacteriophage T4

| Sequence | Relative lengths of germ tubes (Phytophthora nicotianae; 10 μg, in buffer II (20 μl buffer Al + 1 μl 50% DMSO/50% PBS)) | Relative survival rate of Escherichia coli cells (Escherichia coli cells; 1 μg) | Relative survival rate of Escherichia coli cells (Escherichia coli cells; 10 μg) | Bactericidal activity compared with T4 lysozyme, in words (Escherichia coli cells; comment on Table 1) | Relative length of germ tubes [1] | Enzyme activity (muramidase), in words (muramidase) | Enzyme activity (muramidase), in words (muramidase; listed as amino acid 143-155) | Relative lengths of germ tubes (Phytophthora nicotianae; 1 μg, in buffer I (20 μl buffer Al + 1 μl PBS)) |
| --- | --- | --- | --- | --- | --- | --- | --- | --- |
| WDEAAVNLAKSRWYNQ [Peptide A23, peptide including AA 126-141 of T4 lysozyme] | 0.69 |  |  |  |  |  |  |  |
| PNRAKRVIFTFRT [Peptide A4] |  | 0.74 +/− 0.14 | 0.05 +/− 0.09 | significantly higher bactericidal activity | 0.48 | no enzymatic muramidase activity | none of the native enzymatic activity | 0.59 |
